Measurements reported in patent US4663311A, “Derivatives of muramyl-peptides and of steroids having macrophage-activating properties” (priority 1983, dated 1987).

Tests used:
Mastocytoma P815 = assay: Growth inhibition of mastocytoma P815 cocultured with treated mouse peritoneal macrophages (tritiated thymidine incorporation); type: cell-based; settings: MTP-chol in liposomes at 2 μg/ml (400 μg liposomes/ml) or 1 μg/ml (200 μg liposomes/ml) vs 50 μg of MDP
Experimental: I. The microphages used are peritoneal macrophages from eight week old female BDF 1 mice. They have been brought into the peritoneal cavity by i.p. injection 4 days earlier, of 1.5 ml of a sterile inflammatory irritant, thioglycollate medium (marketed by Institut Pasteur Production).
The peritoneal cells are obtained by peritoneal washing with 5 ml of MEM medium (see below) of mice previously killed by cervical dislocation and bled by decapitation.
After centrifugation, they are replaced in suspension in MEM (Minimal Essential Medium, Institut Pasteur Production) supplemented with 5% of inactivated fetal calf serum (gibco), and antibiotics (penicillin+streptomycine).
The macrophages are identified by microscope by their aptitude to endocyte neutral red and counted on an aliquot portion.
The suspension is then adjusted to 2.10^6 macrophages/ml and distributed in the proportion of 250 μl per cup in a Microtest II (NUNCLON) plastic box of 96 cups.
The disk is placed in an oven (HERAEUS) at 37° C. in an air atmosphere+5% water-saturated CO2. […]
The portion of filter corresponding to each cup is cut out and counted in the presence of scintillation liquid (LIPOLUMAC, LUMA) in a scintillation counter (RACKBETA, LKB). […]
The antitumoral activity of the macrophages is expressed as a percentage of growth inhibition: (%IC) [formula] […]

influenza virus A/PR 8 = assay: Anti-viral activity in experimental influenza infection of Swiss mice; type: in vivo, mouse
Description: The anti-viral activity has been evaluated in an experimental infection system. Swiss mice aged 10 weeks were used. The virus chosen was that of the influenza virus A/PR 8.
At day D-0, the animals received by the intra-nasal route 50 microliters of a viral dilution at 1/10^4.
An anti-viral activity of the tested compound has been found both in preventive and curative experiments (prevention). The administration of one mg of compound by the intra-nasal route one day prior to the viral dilution produced the survival of 67% of the animals.
When the compounds were used at the curative level, the best results were obtained when 0.5 mg of the compound was administered sub-cutaneously one day after the administration of the viral dilution. 71% of the animals survived.

B16-BL6 melanoma = assay: Cytotoxicity against B16-BL6 melanoma cocultured with treated rat alveolar macrophages (125I-deoxyuridine remaining); type: cell-based
Experimental: The macrophages used are alveolar macrophages of F344 male rats of 200 gm. The macrophages are obtained by washing the lung with 9×5 ml of PBS medium of DULBECCO without calcium or magnesium, of rats anesthesitized with 0.5 ml 5% Nembutal ip (Laboratoires Abbott S.A.) and bled by incision of an artery of the kidney. After centrifugation, they are resuspended in MEM (Minimal Essential Medium) supplemented with 5% of inactivated fetal calf serum (Gibco), glutamine, sodium pyruvate, non-essential amino acids, vitamins and antibiotics (penicillin and streptomycine).
The suspension is then adjusted to 5×10^5 macrophages/ml and redistributed in the proportion of 100 μl per cup in a TITERTEK plastic dish of 96 cups. After incubation for 4 hours, the macrophages have adhered; the non-adherent cells (less than 5%) are removed by aspiration of the medium and two washings with incubation medium. […]
After 96 hours of coculture, the dead cells are removed by 3 washings of each cup with 200 μl of PBS of DULBECCO medium. […] The radioactivity remaining in each cup is counted in a gamma counter (BECKMAN GAMMA 4000). […]
the antitumoral activity of the macrophages is expressed as a cytotoxicity percentage (%CYT): [formula] where T=^125 I-deoxyuridine remaining in the untreated macrophages+tumoral cells coculture; and […]

CC(=O)N[C@@H]1[C@@H](OC(C)C(=O)N[C@@H](C)C(=O)N[C@H](CCC(=O)N[C@@H](C)C(=O)O[C@H]2CC[C@@]3(C)C(=CC[C@H]4[C@@H]5CC[C@H]([C@H](C)CCCC(C)C)[C@@]5(C)CC[C@@H]43)C2)C(N)=O)[C@H](O)[C@@H](CO)O[C@@H]1O (stereo partly drawn) [MTP-chol, N-acetyl-muramyl-L-alanyl-D-isoglutaminyl-L-alanyl-cholsteryl ester]
activation of macrophages compared with MDP (Mastocytoma P815): activates the macrophages significantly more than 50 μg of MDP does
animals survived (influenza virus A/PR 8; curative: 0.5 mg sub-cutaneously one day after the viral dilution): 71%
survival of the animals (influenza virus A/PR 8; preventive: one mg intra-nasal one day prior to the viral dilution): 67%
concentration of MTP-chol in the liposomes that significantly activates the macrophages (B16-BL6 melanoma; 40 μg phospholipid/ml): > 0.0017 µg/mL
concentration of MTP-chol in the liposomes that significantly activates the macrophages (B16-BL6 melanoma; 400 μg phospholipid/ml): more than 0.017 μg/ml
